Laboratory results as given in patent US20140235447A1, “METHODS FOR […] YIELD” (Syngenta Crop Protection LLC, priority 2013, published 2014).
Values joined by “and” are separate entries in the source; they are usually repeats but may differ in a detail not shown here. Identical values can stand only once.

Legend:
Tropical corn = assay: Treatment of tropical corn with single or multiple applications of 1-MCP, crop yield; assay type: in vivo; conditions: for Yield increase in kg/ha, Single app. @ V3-5: single application at stage of 3-5 fully collared leaves; for Yield increase in kg/ha, Single app @ V10: single application at stage of 10 leaves; for Yield increase in kg/ha, Double app. @ V3&10: two applications, 3-5 fully collared leaves and 10 leaf stage
Description: Tropical corn is treated with a combination of extruded granules of dextrose containing 0.1% 1-MCP and coated sand granules also containing 0.1% 1-MCP. The plants are treated with (1) a single application at the stage of 3-5 fully collared leaves; (2) a single application at the stage of 10 leaves; or (3) two applications with a first application at stage of 3-5 fully collared leaves and a second application at the 10 leaf stage. Dosages of 5 g/hectare, 10 g/hectare, and 25 g/hectare 1-MCP are applied for each of the three different treatment regimes.
The results are presented in Table 1 and FIG. 1 with yield being measured in kg/hectare. For each dosage amount the left bar designates treatment 1 (a single application at the stage of 3-5 fully collared leaves), the middle bar designates treatment 2 (a single application at the stage of 10 leaves), and the right hand bar designates treatment 3 (application at both the stage of 3-5 fully collared leaves and again at the 10 leaf stage). For each of the 5 g/hectare treatment, the 10 g/hectare treatment, and the 25 g/hectare treatment, the yield is increased by more than 150% for plants undergoing two treatments when compared to plants treated only once.

cotton = assay: Treatment of tropical cotton with single or multiple applications of 1-MCP, seed cotton yield; assay type: in vivo; conditions: 9.6 GAI/HA
Description: Four different replicates of treatment of cotton are performed. […] Treatment A designates application of cyclopropene at the stage of Pin Head Square +14 days. Treatment B designates application of cyclopropene at the stage of first flowers. […]

## CC1=CC1 [1-MCP, 1-methylcyclopropene]
Tropical corn; 5 g/ha 1-MCP
  Yield increase in kg/ha, Single app. @ V3-5: 506 kg/ha
  Yield increase in kg/ha, Single app @ V10: 351 kg/ha
  Yield increase in kg/ha, Double app. @ V3&10: 1082 kg/ha
Tropical corn; 5 g/hectare treatment
  yield increase for plants undergoing two treatments compared to plants treated only once: more than 150%
Tropical corn; 10 g/ha 1-MCP
  Yield increase in kg/ha, Single app. @ V3-5: 557 kg/ha
  Yield increase in kg/ha, Single app @ V10: 618 kg/ha
  Yield increase in kg/ha, Double app. @ V3&10: 1580 kg/ha
Tropical corn; 10 g/hectare treatment
  yield increase for plants undergoing two treatments compared to plants treated only once: more than 150%
Tropical corn; 20-25 g/ha 1-MCP
  Yield increase in kg/ha, Single app. @ V3-5: 826 kg/ha
  Yield increase in kg/ha, Single app @ V10: 543 kg/ha
  Yield increase in kg/ha, Double app. @ V3&10: 1539 kg/ha
Tropical corn; 25 g/hectare treatment
  yield increase for plants undergoing two treatments compared to plants treated only once: more than 150%
cotton; average of trials 1-5
  Yield difference between treated plots and untreated checks, Double Applications AB: Floral buds enlarged/Early bloom, average: 713 kg/ha of seed cotton
  Yield difference between treated plots and untreated checks, Double Applications BC: Early bloom/10% of bolls at final size, average: 796 kg/ha of seed cotton
  Yield difference between treated plots and untreated checks, Single Application A: Floral buds distinctly enlarged, average: 577 kg/ha of seed cotton
  Yield difference between treated plots and untreated checks, Single Application B: Early bloom, average: 568 kg/ha of seed cotton
  Yield difference between treated plots and untreated checks, Single Application C: 10% of bolls at final size, average: 512 kg/ha of seed cotton
cotton; individual trials 1-5
  Yield difference between treated plots and untreated checks, Double Applications AB: Floral buds enlarged/Early bloom: 560 kg/ha of seed cotton and 185 kg/ha of seed cotton and 883 kg/ha of seed cotton and 1563 kg/ha of seed cotton and 375 kg/ha of seed cotton
  Yield difference between treated plots and untreated checks, Double Applications BC: Early bloom/10% of bolls at final size: 696 kg/ha of seed cotton and 262 kg/ha of seed cotton and 1042 kg/ha of seed cotton and 1667 kg/ha of seed cotton and 313 kg/ha of seed cotton
  Yield difference between treated plots and untreated checks, Single Application A: Floral buds distinctly enlarged: 571 kg/ha of seed cotton and 167 kg/ha of seed cotton and 767 kg/ha of seed cotton and 1132 kg/ha of seed cotton and 250 kg/ha of seed cotton
  Yield difference between treated plots and untreated checks, Single Application B: Early bloom: 839 kg/ha of seed cotton and 369 kg/ha of seed cotton and 767 kg/ha of seed cotton and 757 kg/ha of seed cotton and 106 kg/ha of seed cotton
  Yield difference between treated plots and untreated checks, Single Application C: 10% of bolls at final size: 780 kg/ha of seed cotton and 280 kg/ha of seed cotton and 792 kg/ha of seed cotton and 715 kg/ha of seed cotton and −6 kg/ha of seed cotton
